Reference: patent US8889696B2, “Substituted pyrido[2,3-d]pyrimidin-7(8H)-ones and therapeutic uses thereof” (Temple University—Of The Commonwealth System Of Higher …, priority 2009, dated 2014)

What was measured:
[1] = test system: K562 (chronic myelogenous leukemia); assay: Effect on tumor cell lines (Latham assay), K562; type: cell-based; details: Homo sapiens; K562 cells, examined 96 hours after treatment; read-out: Potencies (IC50) K 562
Procedure: (§1) The plated cells were treated 24 hours later with a compound of the invention dissolved in DMSO at multiple concentrations ranging from 0.01 μM to 100 μM. […] When necessary, the total number of viable cells was determined by trypsinizing the wells and counting the number of viable cells, as determined by trypan blue exclusion, using a hemacytometer.

DU145 (prostate cancer) = assay: Effect on tumor cell lines (Latham assay), DU145; type: cell-based; details: Homo sapiens, DU-145; DU145 cells, examined 96 hours after treatment; read-out: Potencies (IC50) DU 145
Procedure: as §1

HFL (human fibroblast) = assay: Normal cell killing, HFL; type: cell-based; details: concentration 5-fold higher than a concentration that resulted in tumor cell killing
Procedure: (§2) The effect of the compounds of the invention on tumor cells was determined by the assay described by Latham et al., Oncogene 12:827-837 (1996). Tumor cells K562 (chronic myelogenous leukemia; leukemia cell line +ve for Bcr-Abl) or DU145 (prostate cancer) were plated in 12-well dishes at a cell density of 2.5×10^4 cells well. The plated cells were treated 24 hours later with a compound of the invention dissolved in DMSO at multiple concentrations ranging from 0.01 μM to 100 μM. The plates were examined 96 hours later under an inverted microscope, Olympus CK-2 using an 10× objective, and compound activity was noted by physical observation. When necessary, the total number of viable cells was determined by trypsinizing the wells and counting the number of viable cells, as determined by trypan blue exclusion, using a hemacytometer.
(§3) Utilizing a similar procedure, the compounds of Example 12 and Example 40 were tested on two normal cell lines: HFL (human fibroblast) and hMSC (human marrow stem cell).

[2] = test system: hMSC (human marrow stem cell); assay: Normal cell killing, hMSC; type: cell-based; details: concentration 5-fold higher than a concentration that resulted in tumor cell killing
Procedure: as §2, §3

BT474 = assay: Viable cell count GI50 (Table 4); type: cell-based; details: BT474, Breast (Erbb2+); 96 h continuous treatment, trypan blue
Procedure: (§4) Cells (1×10^5) were plated into 6-well dishes and 24 h later test compound was added at five different concentrations over a 2 log dilution (1-100 μM). The total number of viable cells was determined after 96 h of continuous treatment by staining with trypan blue and counting the number of non-staining cells (viable) remaining in each well using a hemacytometer. The percentage of viable cells remaining was calculated as follows: # viable cells (compound treated)/# viable cells (DMSO treated)*100.

GRANTA-519 = assay: Viable cell count GI50 (Table 4); type: cell-based; details: GRANTA-519, Mantle Cell Lymphoma; 96 h continuous treatment, trypan blue
Procedure: as §4

HELA = assay: Viable cell count GI50 (Table 4); type: cell-based; details: Cervical, 96 h continuous treatment, trypan blue
Procedure: as §4

RAJI = assay: Viable cell count GI50 (Table 4); type: cell-based; details: B-Cell, 96 h continuous treatment, trypan blue
Procedure: as §4

SK-MEL-28 = assay: Viable cell count GI50 (Table 4); type: cell-based; details: SK-MEL-28, Melanoma; 96 h continuous treatment, trypan blue
Procedure: as §4

U2OS = assay: Viable cell count GI50 (Table 4); type: cell-based; details: Osteosarcoma, 96 h continuous treatment, trypan blue
Procedure: as §4

U87 = assay: Viable cell count GI50 (Table 4); type: cell-based; details: U87, Glioblastoma; 96 h continuous treatment, trypan blue
Procedure: as §4

HFL = assay: Viable cell count GI50 (Table 4); type: cell-based, human; details: Normal, 96 h continuous treatment, trypan blue
Procedure: as §4

PLK2 [3] = target: T1, PLK2 (Homo sapiens (Human), UniProt Q9NYY3); assay: Kinase profiling; type: biochemical; details: 10 μM ATP
T1 sequence (Q9NYY3 whole entry): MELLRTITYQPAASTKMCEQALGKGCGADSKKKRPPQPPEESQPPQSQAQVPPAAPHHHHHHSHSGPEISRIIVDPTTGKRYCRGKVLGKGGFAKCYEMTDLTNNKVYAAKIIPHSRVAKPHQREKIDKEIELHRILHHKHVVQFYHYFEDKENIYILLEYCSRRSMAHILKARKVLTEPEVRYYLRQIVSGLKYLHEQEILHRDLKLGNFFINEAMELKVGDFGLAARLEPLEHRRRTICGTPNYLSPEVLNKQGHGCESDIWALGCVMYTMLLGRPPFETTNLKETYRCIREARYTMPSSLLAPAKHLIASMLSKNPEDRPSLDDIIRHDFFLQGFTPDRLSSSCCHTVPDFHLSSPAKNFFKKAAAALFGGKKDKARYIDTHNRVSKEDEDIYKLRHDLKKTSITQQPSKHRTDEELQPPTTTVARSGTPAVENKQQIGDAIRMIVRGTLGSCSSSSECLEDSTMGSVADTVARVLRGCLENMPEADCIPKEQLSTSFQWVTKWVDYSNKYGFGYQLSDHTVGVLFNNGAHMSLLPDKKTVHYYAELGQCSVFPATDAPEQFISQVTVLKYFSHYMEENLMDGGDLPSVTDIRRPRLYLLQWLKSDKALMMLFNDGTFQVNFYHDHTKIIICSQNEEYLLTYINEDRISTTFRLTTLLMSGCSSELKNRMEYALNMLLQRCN

FLT3 (D835Y) = FLT3 (D835Y) (Homo sapiens (Human), UniProt P36888, D835Y); assay: Kinase profiling; type: biochemical; details: 10 μM ATP
FGFR3 = FGFR3 (Homo sapiens (Human), UniProt P22607); assay: Kinase profiling; type: biochemical; details: 10 μM ATP
FGFR3, sequence (P22607 23-806): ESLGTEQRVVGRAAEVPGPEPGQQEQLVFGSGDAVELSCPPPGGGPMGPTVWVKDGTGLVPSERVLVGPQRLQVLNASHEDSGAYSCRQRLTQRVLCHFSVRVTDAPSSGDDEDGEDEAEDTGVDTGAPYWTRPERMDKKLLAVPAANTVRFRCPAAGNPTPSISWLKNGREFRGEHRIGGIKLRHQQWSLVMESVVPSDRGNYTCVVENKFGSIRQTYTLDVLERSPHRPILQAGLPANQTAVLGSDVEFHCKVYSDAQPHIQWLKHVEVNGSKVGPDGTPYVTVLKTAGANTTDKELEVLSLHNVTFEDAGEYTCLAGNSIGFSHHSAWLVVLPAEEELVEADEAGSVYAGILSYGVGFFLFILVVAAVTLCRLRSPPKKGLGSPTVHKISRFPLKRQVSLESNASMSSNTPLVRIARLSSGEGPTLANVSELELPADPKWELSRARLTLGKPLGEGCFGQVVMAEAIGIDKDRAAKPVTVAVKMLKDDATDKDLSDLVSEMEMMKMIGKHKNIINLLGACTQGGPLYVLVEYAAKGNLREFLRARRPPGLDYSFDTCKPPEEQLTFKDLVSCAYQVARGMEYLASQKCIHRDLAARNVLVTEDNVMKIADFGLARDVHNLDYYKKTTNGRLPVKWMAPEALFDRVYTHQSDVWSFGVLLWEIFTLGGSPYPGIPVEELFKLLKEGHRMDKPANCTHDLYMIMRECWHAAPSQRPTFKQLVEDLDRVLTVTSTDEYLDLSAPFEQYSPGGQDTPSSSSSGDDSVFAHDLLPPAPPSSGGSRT

PLK2 [4] = target: T1, PLK2; assay: Plk kinase inhibition assay (32P-ATP, casein); type: biochemical; details: 5 μM ATP, FIG. 1
Procedure: (§5) Ten ng of recombinant Plk1, Plk2, Plk3 or Plk4 kinase were incubated with the indicated concentrations of compound for 30 minutes at room temperature. Kinase reactions were started by the addition of substrate mix (5 μM ATP, 10 μCi γ^32P-ATP, 1 μg α-casein, 10 mM MgCl2) for 15 minutes at 30° C. Reactions were stopped by 3% phosphoric acid, spotted on PE30 filtermat, washed, dried and subjected to scintillation counting. Data is plotted (after background subtraction) using GraphPad Prism4 software as a non-linear regression plot with variable slope to obtain IC50 values.
as §5, with “Kinase” for “Ten ng of recombinant Plk1, Plk2, Plk3 or Plk4 kinase were incubated with the indicated concentrations of compound for 30 minutes at room temperature. Kinase”

recombinant Plk3 = recombinant Plk3 (Homo sapiens (Human), UniProt Q9H4B4); assay: Plk kinase inhibition assay (32P-ATP, casein); type: biochemical; details: 5 μM ATP, FIG. 1
recombinant Plk3, sequence (Q9H4B4 whole entry): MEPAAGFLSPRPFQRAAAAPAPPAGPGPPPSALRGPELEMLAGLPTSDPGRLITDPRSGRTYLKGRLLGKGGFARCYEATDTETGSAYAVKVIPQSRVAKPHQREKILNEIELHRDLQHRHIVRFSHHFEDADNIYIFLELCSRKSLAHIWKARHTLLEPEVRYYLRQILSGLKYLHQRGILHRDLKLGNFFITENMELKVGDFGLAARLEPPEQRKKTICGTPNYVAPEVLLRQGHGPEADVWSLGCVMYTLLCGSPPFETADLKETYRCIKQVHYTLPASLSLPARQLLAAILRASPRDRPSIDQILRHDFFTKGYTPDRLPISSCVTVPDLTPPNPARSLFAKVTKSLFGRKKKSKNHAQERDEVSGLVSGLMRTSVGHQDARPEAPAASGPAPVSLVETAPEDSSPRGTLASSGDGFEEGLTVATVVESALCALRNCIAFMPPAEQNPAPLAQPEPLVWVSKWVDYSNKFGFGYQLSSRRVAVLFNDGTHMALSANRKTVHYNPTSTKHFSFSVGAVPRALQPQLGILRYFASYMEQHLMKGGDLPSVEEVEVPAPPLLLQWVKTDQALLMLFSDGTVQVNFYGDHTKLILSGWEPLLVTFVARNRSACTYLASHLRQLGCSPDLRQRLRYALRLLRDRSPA
Procedure: as §5
as §5, with “Kinase” for “Ten ng of recombinant Plk1, Plk2, Plk3 or Plk4 kinase were incubated with the indicated concentrations of compound for 30 minutes at room temperature. Kinase”

recombinant Plk4 = recombinant Plk4 (Homo sapiens (Human), UniProt O00444); assay: Plk kinase inhibition assay (32P-ATP, casein); type: biochemical
recombinant Plk4, sequence (O00444 whole entry): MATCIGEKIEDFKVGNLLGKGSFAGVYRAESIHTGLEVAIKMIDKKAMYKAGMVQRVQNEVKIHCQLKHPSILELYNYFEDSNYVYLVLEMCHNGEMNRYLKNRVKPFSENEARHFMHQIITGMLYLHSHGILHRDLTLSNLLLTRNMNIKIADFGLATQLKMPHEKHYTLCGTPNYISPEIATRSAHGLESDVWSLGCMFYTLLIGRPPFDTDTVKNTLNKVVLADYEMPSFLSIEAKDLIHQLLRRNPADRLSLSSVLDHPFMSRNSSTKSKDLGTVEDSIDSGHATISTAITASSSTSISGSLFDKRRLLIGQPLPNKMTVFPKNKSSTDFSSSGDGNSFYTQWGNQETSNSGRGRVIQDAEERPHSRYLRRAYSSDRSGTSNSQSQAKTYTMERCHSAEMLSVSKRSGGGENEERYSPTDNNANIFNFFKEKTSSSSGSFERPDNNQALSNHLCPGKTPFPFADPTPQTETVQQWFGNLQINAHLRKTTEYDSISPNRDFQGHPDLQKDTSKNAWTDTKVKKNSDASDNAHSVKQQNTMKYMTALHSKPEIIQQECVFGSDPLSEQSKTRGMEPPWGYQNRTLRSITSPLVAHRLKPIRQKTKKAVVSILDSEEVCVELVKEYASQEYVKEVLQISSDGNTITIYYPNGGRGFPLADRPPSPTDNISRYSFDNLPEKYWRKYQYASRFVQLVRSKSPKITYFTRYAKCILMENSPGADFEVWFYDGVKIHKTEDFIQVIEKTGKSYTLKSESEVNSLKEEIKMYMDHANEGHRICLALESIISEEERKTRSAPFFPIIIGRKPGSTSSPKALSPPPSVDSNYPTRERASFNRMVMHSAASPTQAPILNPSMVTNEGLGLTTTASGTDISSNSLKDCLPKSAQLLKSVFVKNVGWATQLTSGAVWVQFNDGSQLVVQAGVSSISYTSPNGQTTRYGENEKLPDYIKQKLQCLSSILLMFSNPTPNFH
Procedure: as §5
as §5, with “Kinase” for “Ten ng of recombinant Plk1, Plk2, Plk3 or Plk4 kinase were incubated with the indicated concentrations of compound for 30 minutes at room temperature. Kinase”

PLK2 [5] = target: T1, PLK2; assay: Affinity analysis with biotinylated compound, streptavidin pull-down from U2OS lysates, anti-Plk2 Western blot; type: binding; details: FIG. 2
Procedure: Increasing concentrations of a biotinylated form of the compound were incubated with U2OS lysates. Streptavidin-conjugated agarose beads were utilized to pull down the biotinylated compound in complex with its interacting proteins.
Increasing concentrations of a biotinylated form of the compound were incubated for two hours with U2OS lysates (0.6 mg/ml) derived from the U2OS cell line. Streptavidin-conjugated agarose beads were utilized to pull down the biotinylated compound in complex with its interacting proteins. Pre-cleared streptavidin beads were added to each reaction mixture and incubated overnight at 4° C. The beads were washed and blotted with SDS-PAGE loading buffer and run on a 10% acrylamide denaturing gel. […] Western blotting was performed using an anti-Plk2 antibody.

U2OS osteosarcoma cells [6] = assay: Induction of apoptosis in U2OS cells (Caspase Glo, Cell Titer Blue); type: cell-based; details: 24 hours, FIG. 3
Procedure: U2OS cells were treated with increasing concentrations of the compound for 24 hours. Cell viability was measured by incubating cells with Cell Titer Blue reagent at 37° C. for 3 hours under 5% CO2. Thereafter the cells were incubated with Caspase Glo reagent for 1 hour at room temperature to assay induction of Caspase 3/7 activity.
Cell viability was measured by incubating cells with Cell Titer Blue reagent (Promega) at 37° C. for 3 hours under 5% CO2. Thereafter the cells were incubated with Caspase Glo reagent (Promega) for 1 hour at room temperature to assay induction of Caspase 3/7 activity.

U2OS osteosarcoma cells [7] = assay: Spindle staining of U2OS cells (anti-alpha tubulin, fluorescent microscopy); type: cell-based; details: 1 uM, 24 hrs
Procedure: The cells were fixed in 4% paraformaldehyde and stained with anti-alpha tubulin antibodies conjugated with FITC followed by 5 μg/ml […] staining. The coverslips were visualized by fluorescent microscopy using an Olympus microscope at 100× magnification equipped with the Insight digital camera system.

CD-1 female mice = assay: Toxicity study in mice; type: in vivo
Procedure: . DMSO was used as a placebo. Three CD-1 female mice were used per group. Drugs were administered intraperitoneally at 100 mg/kg. Viability, signs of toxicity and body weight were monitored over the next 7 days. […]. […] Comparative body weight studies could not be carried out for this compound due to the early death of animals. These observations agree with the known toxicity of BI-2536. […]. Following this treatment, 100% survival for >10 days after injection was observed. […]

tumor cells = assay: Apoptosis induction in tumor cells; type: cell-based
recombinant Plk1 = recombinant Plk1 (Homo sapiens (Human), UniProt P53350)
recombinant Plk1, sequence (P53350 whole entry): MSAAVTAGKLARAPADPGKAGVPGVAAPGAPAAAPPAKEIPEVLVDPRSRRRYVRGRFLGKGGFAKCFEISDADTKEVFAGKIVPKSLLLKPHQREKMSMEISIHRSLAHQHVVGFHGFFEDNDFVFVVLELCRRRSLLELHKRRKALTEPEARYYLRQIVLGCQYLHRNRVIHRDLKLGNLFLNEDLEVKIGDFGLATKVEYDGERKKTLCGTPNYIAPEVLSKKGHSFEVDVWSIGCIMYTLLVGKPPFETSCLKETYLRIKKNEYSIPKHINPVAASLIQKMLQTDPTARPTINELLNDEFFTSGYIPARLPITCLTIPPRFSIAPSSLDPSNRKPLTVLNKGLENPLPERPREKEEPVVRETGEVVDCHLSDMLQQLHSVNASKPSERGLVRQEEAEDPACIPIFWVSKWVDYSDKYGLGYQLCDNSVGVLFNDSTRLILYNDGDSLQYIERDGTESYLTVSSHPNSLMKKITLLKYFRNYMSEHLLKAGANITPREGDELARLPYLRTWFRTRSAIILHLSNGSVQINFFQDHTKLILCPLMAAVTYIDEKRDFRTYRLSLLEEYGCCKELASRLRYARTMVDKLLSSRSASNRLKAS

RSK1 = RSK1 (Homo sapiens (Human), UniProt Q15418); assay: biochemical
RSK1, sequence (Q15418 whole entry): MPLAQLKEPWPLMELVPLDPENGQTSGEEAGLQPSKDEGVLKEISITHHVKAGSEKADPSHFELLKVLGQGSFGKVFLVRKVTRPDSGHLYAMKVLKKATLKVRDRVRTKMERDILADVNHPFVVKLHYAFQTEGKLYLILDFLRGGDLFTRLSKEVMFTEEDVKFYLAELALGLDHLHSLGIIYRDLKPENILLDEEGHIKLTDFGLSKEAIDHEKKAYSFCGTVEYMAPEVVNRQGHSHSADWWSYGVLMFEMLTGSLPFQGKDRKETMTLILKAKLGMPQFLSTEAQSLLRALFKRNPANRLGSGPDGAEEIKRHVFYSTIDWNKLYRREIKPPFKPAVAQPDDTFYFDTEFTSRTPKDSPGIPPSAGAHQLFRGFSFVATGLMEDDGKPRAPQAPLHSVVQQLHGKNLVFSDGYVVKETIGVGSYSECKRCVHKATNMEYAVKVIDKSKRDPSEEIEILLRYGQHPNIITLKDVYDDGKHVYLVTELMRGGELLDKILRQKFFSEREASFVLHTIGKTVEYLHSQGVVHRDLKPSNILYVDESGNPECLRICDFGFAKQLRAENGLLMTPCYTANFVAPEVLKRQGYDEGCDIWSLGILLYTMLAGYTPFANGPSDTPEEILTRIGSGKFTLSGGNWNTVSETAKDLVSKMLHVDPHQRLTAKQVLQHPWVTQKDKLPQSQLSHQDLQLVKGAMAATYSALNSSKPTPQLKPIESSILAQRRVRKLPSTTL

WNK2 = WNK2 (Homo sapiens (Human), UniProt Q9Y3S1); assay: Kinase profiling; type: biochemical; details: 10 μM ATP
PBK/TOPK = PBK/TOPK (Homo sapiens (Human), UniProt Q96KB5); assay: Kinase profiling; type: biochemical; details: 10 μM ATP
PBK/TOPK, sequence (Q96KB5 whole entry): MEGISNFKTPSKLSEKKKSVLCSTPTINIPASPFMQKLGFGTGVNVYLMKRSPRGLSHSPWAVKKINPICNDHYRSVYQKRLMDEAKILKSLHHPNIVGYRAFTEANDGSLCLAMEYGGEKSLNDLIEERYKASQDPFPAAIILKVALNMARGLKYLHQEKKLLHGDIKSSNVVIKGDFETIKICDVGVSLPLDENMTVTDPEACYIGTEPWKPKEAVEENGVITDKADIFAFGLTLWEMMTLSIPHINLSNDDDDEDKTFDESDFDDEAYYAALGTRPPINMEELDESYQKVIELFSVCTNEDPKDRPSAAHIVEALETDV

[8] = 100 mg/kg intraperitoneally, monitored over 7 days

## Cn1c(=O)c(S(=O)(=O)c2ccc(F)cc2)cc2cnc(Nc3cnc4[nH]ccc4c3)nc21 [Example 12, 2-(1H-pyrrolo[2,3-b]pyridin-5-ylamino)-6-(4-fluorophenylsulfonyl)-8-methylpyrido[2,3-d]pyrimidin-7(8H)-one]
[1]
  IC50: < 1 µM
DU145 (prostate cancer)
  IC50: < 1 µM
HFL (human fibroblast)
  killing of normal cells: did not kill the normal cells
[2]
  killing of normal cells: did not kill the normal cells
other
  melting point: 274 to 280 °C

## Cn1c(=O)c(S(=O)(=O)c2ccc(F)cc2F)cc2cnc(Nc3ccc4[nH]ccc4c3)nc21 [Example 39, 2-(1H-indol-5-ylamino)-6-(2,4-difluorophenylsulfonyl)-8-methylpyrido[2,3-d]pyrimidin-7(8H)-one]
BT474
  GI50: 0.1 µM
GRANTA-519
  GI50: 0.04 µM
HELA
  GI50: 0.05 µM
RAJI
  GI50: 0.05 µM
SK-MEL-28
  GI50: 0.2 µM
U2OS
  GI50: 0.05 µM
U87
  GI50: 0.2 µM
HFL
  GI50: > 5 µM
PLK2 [3]
  IC50: 0.201 µM
FLT3 (D835Y)
  IC50: 8.85 µM
FGFR3
  IC50: 9 µM
PLK2 [4]
  inhibitory activity against PLK-2: potent inhibitor
Recombinant Plk3
  inhibitory activity against PLK-3: little or no inhibitory activity
Recombinant Plk4
  inhibitory activity against PLK-4: little or no inhibitory activity
PLK2 [5]
  competition of Plk2 / compound-biotin interaction by free compound: readily competed out
U2OS osteosarcoma cells [6]; Cell Titer Blue
  cell viability: dose-dependent decrease in cell viability
U2OS osteosarcoma cells [6]
  induction of apoptosis: induces apoptosis of U2OS osteosarcoma cells in a dose-dependent fashion
U2OS osteosarcoma cells [7]
  treated cells mitotically arrested with multipolar spindles: greater than 95%
CD-1 female mice; [8]
  signs of toxicity: No signs of toxicity
  survival of mice: 100%
  weight loss: No weight loss
CD-1 female mice; 200 mg/kg, for >10 days after injection
  survival of mice: 100%
Tumor cells
  concentration inducing apoptosis in tumor cells: approximately 100 nM
Recombinant Plk1
  inhibitory activity against PLK-1: little or no inhibitory activity
RSK1
  IC50: 4.25 µM

## Cn1c(=O)c(S(=O)(=O)c2ccc(F)cc2F)cc2cnc(Nc3ccc4[nH]ncc4c3)nc21 [Example 40, 2-(1H-indazol-5-ylamino)-6-(2,4-difluorophenylsulfonyl)-8-methylpyrido[2,3-d]pyrimidin-7(8H)-one]
[1]
  IC50: 10 to 25 µM
DU145 (prostate cancer)
  IC50: 10 to 25 µM
HFL (human fibroblast)
  killing of normal cells: did not kill the normal cells
[2]
  killing of normal cells: did not kill the normal cells

## COC[C@H]1OC(=O)c2coc3c2[C@@]1(C)C1=C(C3=O)[C@@H]2CCC(=O)[C@@]2(C)C[C@H]1OC(C)=O [Wortmanin, wortmanin, reference compound]
PLK2 [4]
  inhibitory activity against PLK-2: nanomolar inhibitory activity
Recombinant Plk3
  inhibitory activity against PLK-3: nanomolar inhibitory activity
Recombinant Plk1
  inhibitory activity against PLK-1: nanomolar inhibitory activity

## Staurosporine
WNK2
  IC50: 8.09 µM
PBK/TOPK
  IC50: 0.433 µM
